In assay [1] the target is isolated recombinant JAK2 kinase domain (Homo sapiens (Human), UniProt O60674). Put plainly: JAK2 enzyme assay (Caliper LabChip, Ki). In kind it is biochemical.
In assay [2] the target is isolated recombinant JAK1 kinase domain (Homo sapiens (Human), UniProt P23458). In words: JAK1 enzyme assay (Caliper LabChip, Ki). In kind it is biochemical.
Setting [3] is: isolated recombinant JAK2 kinase domain, 0.2 nM enzyme, ATP 25 μM.
[4] abbreviates: isolated recombinant JAK1 kinase domain, 1.5 nM enzyme, ATP 25 μM.

In patent US10189836B2, “Therapeutic compounds, compositions and methods of use thereof” (Genentech, Inc., priority 2015, dated 2019) one finds Ki data, which are given here for 22 compounds.

Where two headings read alike, the source gives them in different places.

Sequence of isolated recombinant JAK2 kinase domain (O60674 849-1124): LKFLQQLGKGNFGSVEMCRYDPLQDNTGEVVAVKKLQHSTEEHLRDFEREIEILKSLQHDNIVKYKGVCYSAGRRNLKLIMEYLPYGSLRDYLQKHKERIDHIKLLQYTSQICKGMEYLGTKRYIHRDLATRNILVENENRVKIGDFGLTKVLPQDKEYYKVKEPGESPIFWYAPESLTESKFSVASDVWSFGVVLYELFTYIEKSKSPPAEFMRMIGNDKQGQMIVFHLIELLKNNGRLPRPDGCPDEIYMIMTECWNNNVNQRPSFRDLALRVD
Sequence of isolated recombinant JAK1 kinase domain (P23458 875-1153): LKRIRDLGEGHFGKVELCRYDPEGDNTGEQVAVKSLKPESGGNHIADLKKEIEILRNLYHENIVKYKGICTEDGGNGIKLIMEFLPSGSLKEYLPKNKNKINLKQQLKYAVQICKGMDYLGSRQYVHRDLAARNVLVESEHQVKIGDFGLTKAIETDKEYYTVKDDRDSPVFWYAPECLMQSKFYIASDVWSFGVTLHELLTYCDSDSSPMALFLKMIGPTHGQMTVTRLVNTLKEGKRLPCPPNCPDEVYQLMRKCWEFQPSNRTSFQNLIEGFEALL

Consider `CN1CCN(C(=O)Cn2cc(Nc3nc4c(N5C[C@H]6CC[C@@H](C5)[C@H]6OCc5ccccc5)cccn4n3)cn2)CC1` [Example 1, 2-[4-[[8-[(1S,5R)-8-benzyloxy-3-azabicyclo[3.2.1]octan-3-yl]-[1,2,4]triazolo[1,5-a]pyridin-2-yl]amino]pyrazol-1-yl]-1-(4-methylpiperazin-1-yl)ethanone], for which the Ki in assay [1] (setting [3]) turned out to be 0.6 nM; in assay [2] (setting [4]), 0.2 nM.

For the compound `CN1CCN(C(=O)Cn2cc(Nc3nc4c(N5CC6CCC(C5)N6C(=O)N5CC(C(F)(F)F)C5)cccn4n3)cn2)CC1` [Example 2, 1-(4-methylpiperazin-1-yl)-2-[4-[[8-[8-[3-(trifluoromethyl)azetidine-1-carbonyl]-3,8-diazabicyclo[3.2.1]octan-3-yl]-[1,2,4]triazolo[1,5-a]pyridin-2-yl]amino]pyrazol-1-yl]ethanone], the Ki in assay [1] (setting [3]) was determined as 0.4 nM; in assay [2] (setting [4]) it was 0.5 nM.

For the compound `CN1CCN(C(=O)Cn2cc(Nc3nc4c(N5CC6CCC(C5)N6C(=O)C5CSC5)cccn4n3)cn2)CC1` [Example 3, 1-(4-methylpiperazin-1-yl)-2-[4-[[8-[8-(thietane-3-carbonyl)-3,8-diazabicyclo[3.2.1]octan-3-yl]-[1,2,4]triazolo[1,5-a]pyridin-2-yl]amino]pyrazol-1-yl]ethanone], the Ki in assay [1] (setting [3]) is 0.6 nM; in assay [2] (setting [4]), 0.5 nM.

Turning to `CN1CCN(C(=O)Cn2cc(Nc3nc4c(N5CC6CCCC(C5)N6C(=O)CCC(F)(F)F)cccn4n3)cn2)CC1` [Example 4, 4,4,4-trifluoro-1-[3-[2-[[1-[2-(4-methylpiperazin-1-yl)-2-oxo-ethyl]pyrazol-4-yl]amino]-[1,2,4]triazolo[1,5-a]pyridin-8-yl]-3,9-diazabicyclo[3.3.1]nonan-9-yl]butan-1-one], the results for the Ki in assay [1] (setting [3]) and in assay [2] (setting [4]) were 0.8 nM and 0.5 nM, respectively.

With `CN1CCN(C(=O)Cn2cc(Nc3nc4c(N5CC6CCC(C5)N6C(=O)CCC(F)(F)F)cccn4n3)cn2)CC1` [Example 5, 4,4,4-trifluoro-1-[3-[2-[[1-[2-(4-methylpiperazin-1-yl)-2-oxo-ethyl]pyrazol-4-yl]amino]-[1,2,4]triazolo[1,5-a]pyridin-8-yl]-3,8-diazabicyclo[3.2.1]octan-8-yl]butan-1-one], the Ki turned out to be 1.2 nM in assay [1] (setting [3]) and 0.6 nM in assay [2] (setting [4]).

Take `CN1CCN(C(=O)Cn2cc(Nc3nc4c(N5CC6CCC(C5)N6C(=O)[C@H]5C[C@H](C(F)(F)F)C5)cccn4n3)cn2)CC1` [Example 6, formic acid; 1-(4-methylpiperazin-1-yl)-2-[4-[[8-[8-[3-(trifluoromethyl)cyclobutanecarbonyl]-3,8-diazabicyclo[3.2.1]octan-3-yl]-[1,2,4]triazolo[1,5-a]pyridin-2-yl]amino]pyrazol-1-yl]ethanone]: the Ki in assay [1] (setting [3]) amounted to 0.6 nM; in assay [2] (setting [4]), 0.7 nM.

For `CN1CCN(C(=O)Cn2cc(Nc3nc4c(C5=CC6CCC(C5)N6C(=O)OCC(F)(F)F)cccn4n3)cn2)CC1` (stereo not drawn) [Example 7, 2,2,2-trifluoroethyl 3-[2-[[1-[2-(4-methylpiperazin-1-yl)-2-oxo-ethyl]pyrazol-4-yl]amino]-[1,2,4]triazolo[1,5-a]pyridin-8-yl]-8-azabicyclo[3.2.1]oct-3-ene-8-carboxylate], the Ki in assay [1] and in assay [2] was 0.7 nM throughout.

Regarding `CN1CCN(C(=O)Cn2cc(Nc3nc4c(N5CC6CCC(C5)N6C(=O)CC5CC(F)(F)C5)cccn4n3)cn2)CC1` [Example 8, 2-(3,3-difluorocyclobutyl)-1-[3-[2-[[1-[2-(4-methylpiperazin-1-yl)-2-oxo-ethyl]pyrazol-4-yl]amino]-[1,2,4]triazolo[1,5-a]pyridin-8-yl]-3,8-diazabicyclo[3.2.1]octan-8-yl]ethanone], the results for the Ki in assay [1] (setting [3]) and in assay [2] (setting [4]) were 0.7 nM and 0.6 nM, respectively.

For the compound `CN1CCN(C(=O)Cn2cc(Nc3nc4c(N5CC6CCC(C5)N6C(=O)CC5CSCCS5)cccn4n3)cn2)CC1` (stereo not drawn) [Example 9, 2-(1,4-dithian-2-yl)-1-[3-[2-[[1-[2-(4-methylpiperazin-1-yl)-2-oxo-ethyl]pyrazol-4-yl]amino]-[1,2,4]triazolo[1,5-a]pyridin-8-yl]-3,8-diazabicyclo[3.2.1]octan-8-yl]ethanone], the Ki in assay [1] (setting [3]) was found to be 0.9 nM; in assay [2] (setting [4]) it was 0.6 nM.

As to `O=C(Cn1cc(Nc2nc3c(N4CC5CCC(C4)N5C(=O)CCC(F)(F)F)cccn3n2)cn1)N1CCN(C2CCOCC2)CC1` [Example 10, 4,4,4-trifluoro-1-[3-[2-[[1-[2-oxo-2-(4-tetrahydropyran-4-ylpiperazin-1-yl)ethyl]pyrazol-4-yl]amino]-[1,2,4]triazolo[1,5-a]pyridin-8-yl]-3,8-diazabicyclo[3.2.1]octan-8-yl]butan-1-one], the Ki is 1.2 nM in assay [1] (setting [3]) and 0.7 nM in assay [2] (setting [4]).

On to `CN(C1CCN(C(=O)Cn2cc(Nc3nc4c(N5CC6CCC(C5)N6C(=O)CCC(F)(F)F)cccn4n3)cn2)CC1)C1COC1` [Example 11, 4,4,4-trifluoro-1-[3-[2-[[1-[2-[4-[methyl(oxetan-3-yl)amino]-1-piperidyl]-2-oxo-ethyl]pyrazol-4-yl]amino]-[1,2,4]triazolo[1,5-a]pyridin-8-yl]-3,8-diazabicyclo[3.2.1]octan-8-yl]butan-1-one], for which the results for the Ki in assay [1] (setting [3]) and in assay [2] (setting [4]) were 1.4 nM and 0.7 nM, respectively.

As for `CN1CCN(C(=O)Cn2cc(Nc3nc4c(C5=CC6CCC(C5)N6C(=O)CCC(F)(F)F)cccn4n3)cn2)CC1` (stereo not drawn) [Example 13, 4,4,4-trifluoro-1-[3-[2-[[1-[2-(4-methylpiperazin-1-yl)-2-oxo-ethyl]pyrazol-4-yl]amino]-[1,2,4]triazolo[1,5-a]pyridin-8-yl]-8-azabicyclo[3.2.1]oct-3-en-8-yl]butan-1-one], the Ki in assay [2] (setting [4]) was determined as 0.9 nM.

As to `CN1CCN(C(=O)Cn2cc(Nc3nc4c(C5=CC6CCC(C5)N6C(=O)CCC(F)(F)F)cccn4n3)cn2)CC1` (stereo not drawn) [Example 18, 4,4,4-trifluoro-1-[3-[2-[[1-[2-(4-methylpiperazin-1-yl)-2-oxo-ethyl]pyrazol-4-yl]amino]-[1,2,4]triazolo[1,5-a]pyridin-8-yl]-8-azabicyclo[3.2.1]oct-3-en-8-yl]butan-1-one], the Ki in assay [2] (setting [4]) turned out to be 1.5 nM.

Regarding `CN1CCN(C(=O)Cn2cc(Nc3nc4c(N5CC6CCC(C5)N6C(=O)C5CC6C(C5)C6(F)F)cccn4n3)cn2)CC1` (stereo not drawn) [Example 57, 2-[4-[[8-[8-(6,6-difluorobicyclo[3.1.0]hexane-3-carbonyl)-3,8-diazabicyclo[3.2.1]octan-3-yl]-[1,2,4]triazolo[1,5-a]pyridin-2-yl]amino]pyrazol-1-yl]-1-(4-methylpiperazin-1-yl)ethanone], in assay [2] (setting [4]), the Ki worked out at 4.8 nM.

In the case of `CN1CCN(C(=O)Cn2cc(Nc3nc4c(N5CC6CCC(C5)N6C(=O)c5ccccc5)cccn4n3)cn2)CC1` [Example 70, 2-[4-[[8-(8-benzoyl-3,8-diazabicyclo[3.2.1]octan-3-yl)-[1,2,4]triazolo[1,5-a]pyridin-2-yl]amino]pyrazol-1-yl]-1-(4-methylpiperazin-1-yl)ethanone], the Ki in assay [2] (setting [4]) turned out to be 4.2 nM.

As for `CN1CCN(C(=O)Cn2cc(Nc3nc4c(N5CC6CCC(C5)N6CCCC(F)(F)F)cccn4n3)cn2)CC1` [Example 73, 1-(4-methylpiperazin-1-yl)-2-[4-[[8-[8-(4,4,4-trifluorobutyl)-3,8-diazabicyclo[3.2.1]octan-3-yl]-[1,2,4]triazolo[1,5-a]pyridin-2-yl]amino]pyrazol-1-yl]ethanone], the Ki in assay [2] (setting [4]) came out at 8.8 nM.

Turning to `CN1CCN(C(=O)Cn2cc(Nc3nc4c(N5CC6COCC(C5)N6C(=O)CCC(F)(F)F)cccn4n3)cn2)CC1` [Example 130, 4,4,4-trifluoro-1-[7-[2-[[1-[2-(4-methylpiperazin-1-yl)-2-oxo-ethyl]pyrazol-4-yl]amino]-[1,2,4]triazolo[1,5-a]pyridin-8-yl]-3-oxa-7,9-diazabicyclo[3.3.1]nonan-9-yl]butan-1-one], the Ki in assay [1] (setting [3]) was determined as 26.6 nM.

Consider `CN1CCN(C(=O)Cn2cc(Nc3nc4c(N5C[C@H]6CC[C@@H](C5)[C@H]6OCc5ccncc5)cccn4n3)cn2)CC1` [Example 144, 1-(4-methylpiperazin-1-yl)-2-[4-[[8-[rac-(1S,5R)-8-(4-pyridylmethoxy)-3 - azabicyclo[3.2.1]octan-3-yl]-[1,2,4]triazolo[1,5-a]pyridin-2-yl]amino]pyrazol-1-yl]ethanone], for which, in assay [2] (setting [4]), the Ki is 0.8 nM.

For `CN1CCN(C(=O)Cn2cc(Nc3nc4c(N5C[C@H]6CC[C@@H](C5)[C@H]6NCCC(F)(F)F)cccn4n3)cn2)CC1` [Example 145, 1-(4-methylpiperazin-1-yl)-2-(4-((8-((1R,5 S,8r)-8-((3,3,3-trifluoropropyl)amino)-3-azabicyclo[3.2.1]octan-3-yl)-[1,2,4]triazolo[1,5-a]pyridin-2-yl)amino)-1H-pyrazol-1-yl)ethanone], the Ki in assay [2] (setting [4]) turned out to be 1.3 nM.

Regarding `Cc1ccc(CO[C@H]2[C@@H]3CC[C@H]2CN(c2cccn4nc(Nc5cnn(CC(=O)N6CCN(C)CC6)c5)nc24)C3)cn1` [Example 151, 1-(4-methylpiperazin-1-yl)-2-[4-[[8-[rac-(1S,5R)-8-[(6-methyl-3-pyridyl)methoxy]-3-azabicyclo[3.2.1]octan-3-yl]-[1,2,4]triazolo[1,5-a]pyridin-2-yl]amino]pyrazol-1-yl]ethanone], the Ki in assay [2] (setting [4]) turned out to be 0.6 nM.

With `CN1CCN(C(=O)Cn2cc(Nc3nc4c(N5CC6CCC(C5)N6C(=O)C5(C#N)CCCC5)cccn4n3)cn2)CC1` [Example 155, 1-[3-[2-[[1-[2-(4-methylpiperazin-1-yl)-2-oxo-ethyl]pyrazol-4-yl]amino]-[1,2,4]triazolo[1,5-a]pyridin-8-yl]-3,8-diazabicyclo[3.2.1]octane-8-carbonyl]cyclopentane-carbonitrile], the Ki in assay [1] (setting [3]) came out at 21 nM.

On to `CN1CCN(C(=O)Cn2cc(Nc3nc4c(N5C[C@H]6CC[C@@H](C5)[C@@H]6OCc5ccncc5)cccn4n3)cn2)CC1` [Example 189, 1-(4-methylpiperazin-1-yl)-2-(4-((8-((1R,5 S,8s)-8-(pyridin-4-ylmethoxy)-3-azabicyclo[3.2.1]octan-3-yl)-[1,2,4]triazolo[1,5-a]pyridin-2-yl)amino)-1H-pyrazol-1-yl)ethanone], for which the Ki in assay [2] (setting [4]) came to 0.5 nM.

Broadly, the Ki is the dissociation constant of the complex between target and ligand, obtained from inhibition or displacement.
